Experimental data reported in patent US4242453A, “Cultivating streptomyces to produce an esterase inhibitor” (Zaidan Hojin Biseibutsu Kagaku Kenkyu Kai, priority 1977, dated 1980).
pIC50: −log10 of the molar value. In brackets after ≈: the same amount, converted by molar mass. Entries after “also recorded” stand apart in the source; their conditions may differ.

What was measured:
esterase of pig pancreas = test: Inhibition of esterase (decomposition of p-nitrophenyl acetate by crude lipase preparation); type: biochemical
Procedure: Thus, a commercially available, crude lipase preparation obtained from pig pancreas is dissolved to a concentration of 0.5% (by weight) in a 0.05 M phosphate buffered solution (pH 7.0) containing 0.2% "Triton X-100" (a trade name of an emulsifier consisting of a polyethyleneglycol alkylphenylether, a product of Rohm & Haas Co., U.S.A.). 0.03 ml of this lipase solution, 2.92 ml of 0.05 M phosphate buffered solution (pH 7.0) and 0.025 ml of a solution containing an esterastin sample to be assayed are mixed together, and the resulting mixture (2.975 ml) is warmed at 20° C. for 3 minutes and then admixed with 0.025 ml of a solution containing 10 mg/ml of p-nitrophenyl acetate in methanol to start the reaction of p-nitrophenyl acetate with lipase. After the reaction was effected at 20° C. for 30 minutes, absorbance (a) at 400 nm of the resulting reaction solution is measured. On the other hand, absorbance (b) at 400 nm of a control reaction solution obtained from the blank test using the 0.05 M phosphate buffered solution containing no esterastin is measured in the same way as above. Degree (%) of inhibition to esterase is calculated according to the following equation: [formula]

mice = test: Acute toxicity in mice; type: in vivo; settings: 250 mg/kg, intraperitoneal injection
Excerpt: As known substances which inhibit the esterase, there may be mentioned paradoxon and di-isopropyl fluorophosphate etc., which are highly toxic compounds. […] In these respects, it also can be confirmed that esterastin is a novel substance.

[1] = system: antibody-forming cells per spleen; test: Effect on formation of humoral antibody (Jerne plaque technique, SRBC-immunized mice); type: in vivo, dd/Y mice; settings: for Number of antibody-forming cells per spleen (± S.E.): 10^8 SRBC i.v., day 4
Procedure: Groups of dd/Y mice (5 female mice per group, 6-8 weeks old) were immunized with 10^8 red blood cells of sheep as the anitgen (in the form of a suspension in physiological saline solution) by intravenous injection to develop the immunity. At the same time, 1 mg, 250 mcg, 62.5 mcg or 15.6 mcg of esterastin (in the form of a suspension in 1% DMSO-saline) per mouse were intraperitoneally injected into the separate groups of mice, respectively. On the 4 days after the immunization, the mice treated were sacrificed, spleen was teased and the number of the antibody-forming cells present in each mouse spleen was enumerated according to the method of Jerne (see N. K. Jerne, A. A. Nordin and C. Henry: "The agar plaque technique for recognizing antibody-producing cells. Cell-bound Antibodies." ed. B. Amos and H. Koprowski pp. 109-122, Wister Institute Press. Philadelphia, 1963).

D.T.H. to SRBC in mice = test: Effect on cell-mediated immunity (Delayed Type Hypersensitivity to SRBC, footpad swelling); type: in vivo, dd/Y mice; settings: for Increase of footpad thickness: 24 hours after eliciting injection of 10^8 SRBC
Procedure: Effect of esterastin on the cellular immunity was tested according to a known Delayed Type Hypersensitivity (D.T.H.) technique (see P. H. Lagrange, G. B. Mackaness and T. E. Mille: "J. Exp. Med.", 139, 1529-1539 (1974)) using mice immunized with sheep red blood cells as the antigen.
Thus, 10^8 sheep red blood cells suspended in 0.05 ml of physiological saline solution were immunized by subcutaneous injection to the one side of dd/Y mice hind footpad (5 mice per group, female, 6-weeks old) to establish delayed-type hypersensitivity. At the same time as this immunization, 1 mg/mouse, 250 mcg/mouse, 62.5 mcg/mouse or 15.6 mcg/mouse of esterastin were intraperitoneally injected to each test mouse. Four days later, 10^8 sheep rod blood cells were injected subcutaneously into the other side of each test mouse footpad for elicitation of D.T.H. response. 24 Hours after the eliciting injection, the thickness (in mm) of the footpad was measured to evaluate the degree of the swelling in the footpad which received the eliciting injection of sheep rod blood cells. The extent of the swelling in the footpad serves as a measure to estimate the cellular immunity involved.

cultured cells = test: Cell toxicity to cultured cells; type: cell-based; settings: concentration of 10 mcg/ml
Solubility in solvents = type: physicochemical

CCCCCC=CCC=CCC(CC1OC(=O)C1CCCCCC)OC(=O)C(CC(N)=O)NC(C)=O (stereo not shown) [esterastin]
pIC50 (esterase of pig pancreas; p-nitrophenyl acetate as the substrate, read-out: concentration giving 50% inhibition of esterase): 10.39
ID50, dose giving 50% inhibition to esterase (esterase of pig pancreas; p-nitrophenyl acetate substrate, pH 7.0, 20° C., 30 minutes): 0.2 ng/mL (≈ 0.395 nM)
acute toxicity (mice): no toxicity was observed at all; also recorded: does not give any sympton of toxicity at all
Number of antibody-forming cells per spleen (± S.E.) ([1]; 1 mg per mouse i.p.): 45,300 ± 3,300
effect on number of the antibody forming cells (in words) ([1]; 1 mg to 62.5 mcg to mice): remarkably reduces the number of the antibody forming cells
Number of antibody-forming cells per spleen (± S.E.) ([1]; 15.6 mcg per mouse i.p.): 173,000 ± 19,600
Number of antibody-forming cells per spleen (± S.E.) ([1]; 62.5 mcg per mouse i.p.): 55,000 ± 5,700
Number of antibody-forming cells per spleen (± S.E.) ([1]; 250 mcg per mouse i.p.): 52,000 ± 2,300
effect on development of D.T.H. (in words) (D.T.H. to SRBC in mice; 1 mg to 250 mcg to mice): remarkably suppresses the development of D.T.H.
Increase of footpad thickness (D.T.H. to SRBC in mice; 1 mg/mouse i.p.): 3.8 × 0.1 mm
Increase of footpad thickness (D.T.H. to SRBC in mice; 62.5 mcg/mouse i.p.): 6.2 × 0.1 mm
Increase of footpad thickness (D.T.H. to SRBC in mice; 250 mcg/mouse i.p.): 3.0 × 0.1 mm
cell toxicity to the cultured cells (cultured cells): no cell toxicity
solubility in petroleum ether and hexane (Solubility in solvents; petroleum ether and hexane): sparingly soluble; also recorded: substantially insoluble
solubility in organic solvents (Solubility in solvents; pyridine, dimethylsulfoxide, methanol, ethanol, acetone, ethyl acetate, butyl acetate, chloroform and benzene): readily soluble
solubility in water (Solubility in solvents; water): sparingly soluble; also recorded: substantially insoluble
